These are literature values, as cited in US20260345798A1, “COMPOUNDS AND METHODS OF USE THEREOF” (Virginia Commonwealth University, priority 2023, published 2026).

Series [1] has as its system second PDZ2 domain of MDA-9/Syntenin. The conditions noted are these: cited from earlier work.
A further series has as its system T cells. The note with it: cited from earlier work.
The next series concerns cancer invasion. The conditions noted are these: in vitro and in vivo, multiple experimental animal models; cited from earlier work.
Series [2] has as its system non-transformed normal or transformed cells. The conditions noted are these: other cancer contexts; cited from earlier work.
A further series has as its target T1, MDA-9/Syntenin (Homo sapiens, UniProt O00560).
T1 sequence (O00560 1-298): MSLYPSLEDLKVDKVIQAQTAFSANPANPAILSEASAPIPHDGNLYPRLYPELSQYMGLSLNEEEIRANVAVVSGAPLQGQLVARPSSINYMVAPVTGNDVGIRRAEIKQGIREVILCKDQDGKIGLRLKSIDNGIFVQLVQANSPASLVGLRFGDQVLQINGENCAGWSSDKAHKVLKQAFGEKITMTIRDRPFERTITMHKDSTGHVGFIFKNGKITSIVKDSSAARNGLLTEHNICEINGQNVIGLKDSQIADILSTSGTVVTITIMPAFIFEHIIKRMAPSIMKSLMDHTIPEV
The conditions noted are these: literature comparison; cited from earlier work.

Series [3] has as its system PDZ domains in other sequence-similar proteins. The conditions noted are these: cited from earlier work.

By Kd is commonly meant the constant that tells how readily two partners part at equilibrium. As for `Cc1cc(NC(=O)c2nc3nc4c(c(=O)n3[nH]2)CCC4)c(C)cc1NC(=O)CCc1nnc(-c2ccccc2)o1` [PDZ1i], the “binding to PDZ2 domain of MDA-9/Syntenin” value in series [1] is on record as “without appreciable binding”. For the same compound, the “T cell infiltration into the tumor environment” value in the series with T cells is recorded as “causes T cell infiltration into the tumor environment”. In addition, the “blocking of cancer invasion” value in the series on cancer invasion is “effectively blocks cancer invasion”. Besides, the “detrimental effect on cells” value in series [2] is on record as “not detrimental”. Further, at MDA-9/Syntenin, the Kd is 23 µM. Besides, in series [3], the “binding to PDZ domains in other sequence-similar proteins” value is given as “without appreciable binding”.
